Legend:
BCL-2 = BCL-2 (Homo sapiens, UniProt P10415); assay: MST binding assay; conditions: binding curve, dose response
Method: Microscale thermophoresis (MST) binding assays were performed by CreLux, a WuXi AppTech company in Germany, using recombinant ARTS, XIAP, Bcl-2 and cIAP1 proteins. Specifically, for performing experiments with untagged XIAP, a fluorescent label (NT650) was covalently attached to the protein (Maleimide coupling). The labelling was performed in a buffer containing 50 mM HEPES pH 7.0, 150 mM NaCl and 0.005% Tween-20.

[1] = biological target: T1, binding between XIAP and p53 (Homo sapiens, UniProt P98170); assay: BiFC assay in WT MEFs (VN-p53 and VC-XIAP); assay type: cell-based; conditions: 20 μM B3 for 18 hours
T1 construct: expressed in transfected cells; host or cells: WT MEFs
Text: The split-Venus BiFC system was used to evaluate close proximity indicating possible direct binding between pairs of proteins. The proteins were fused either to the N-terminal part of the VenusYFP (yellow fluorescence protein) (VN) or the C-terminal domain (VC). All Venus fragments were fused to the C-terminal sequences of these proteins. The Jun and bFos pair was used as a positive control (p.c.), and the Jun and bFosdeltaZTP pair was used as a negative control (n.c.). A vector encoding dsRed was used as a transfection efficiency marker.

[2] = system: SKMEL-5, A-375, UACC257, Hela wt, Mefs; assay: Western blot, B3 apoptotic effect on different cell lines; assay type: cell-based; conditions: 20 μM, 24 h
Method: The cells were lysed in WCE (whole-cell extract) buffer [25 mM Hepes, pH 7.7, 0.3M NaCl, 1.5 mM MgCl2, 0.2 mM EDTA, 0.1% Triton X-100, 100[μg/ml PMSF and protease inhibitor cocktail (Roche, 1:100 dilution)]. 100 μg of total cell protein, measured with the Bio-Rad Protein Assay kit, were separated by SDS-PAGE (12%) followed by transfer for 2 h on to a nitrocellulose membrane. The membrane was blocked with 5% (w/v) non-fat dried skimmed milk powder in PBS supplemented with 0.05% Tween20 (PBS-T) for 1 hour at room temperature (R.T). Membrane was then probed with primary antibody at 4° C. overnight. Next, the membrane was incubated with the appropriate HRP-conjugated secondary antibody, for 1 hour at R.T. and washed 15 min ×3 with PBS-T. WesternBright ECL (Advansta) was added to the membrane for 2 min and analyzed using ImageQuant LAS-4000 analyzer (GE Healthcare Life Sciences) & “ImageQuant LAS-4000” software (GE Healthcare Life Sciences). Densitometry analysis was performed using ImageQuant total lab 7 (GE Healthcare Life Sciences), image analysis software.

T1 sequence (P98170 whole entry): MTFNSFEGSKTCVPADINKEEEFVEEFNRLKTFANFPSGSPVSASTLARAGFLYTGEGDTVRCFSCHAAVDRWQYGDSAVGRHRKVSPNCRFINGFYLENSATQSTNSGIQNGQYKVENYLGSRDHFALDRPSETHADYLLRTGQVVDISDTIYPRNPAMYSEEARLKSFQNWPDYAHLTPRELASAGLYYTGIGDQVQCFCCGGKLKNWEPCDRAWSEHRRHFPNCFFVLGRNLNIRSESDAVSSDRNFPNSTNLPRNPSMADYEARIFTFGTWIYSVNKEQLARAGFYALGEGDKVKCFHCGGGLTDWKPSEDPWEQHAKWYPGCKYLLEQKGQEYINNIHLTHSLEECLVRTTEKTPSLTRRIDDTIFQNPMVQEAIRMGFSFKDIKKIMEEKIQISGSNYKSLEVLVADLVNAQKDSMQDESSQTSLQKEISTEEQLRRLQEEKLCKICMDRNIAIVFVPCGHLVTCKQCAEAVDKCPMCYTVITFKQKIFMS
Sequence of BCL-2 (P10415 whole entry): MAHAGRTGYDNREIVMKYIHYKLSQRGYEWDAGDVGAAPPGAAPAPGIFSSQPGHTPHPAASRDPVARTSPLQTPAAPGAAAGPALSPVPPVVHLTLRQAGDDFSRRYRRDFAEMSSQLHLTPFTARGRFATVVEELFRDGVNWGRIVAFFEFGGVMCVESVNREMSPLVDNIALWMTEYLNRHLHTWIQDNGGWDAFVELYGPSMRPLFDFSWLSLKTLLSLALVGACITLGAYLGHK

- direct binding to Bcl-2 (BCL-2): binds with high affinity
- binding between VN-p53 and VC-XIAP [1]: disrupted
SMILES: Cn1ccnc1C(=O)c1ccc(NC(=O)C(=O)N[C@H](CO)Cc2ccccc2)cc1 [B3, (S)-N1-(1-hydroxy-3-phenylpropan-2-yl)-N2-(4-(1-methyl-1H-imidazole-2-carbonyl)phenyl)oxalamide]
- cleavage of apoptotic markers Caspase3 and PARP [2]: induced cleavage

Reference: US20250057813A1, “APOPTOSIS RELATED PROTEIN IN THE TGF-BETA SIGNALING PATHWAY (ARTS) MIMETIC COMPOUNDS, COMPOSITIONS, METHODS AND USES THEREOF IN INDUCTION OF APOPTOSIS” (Carmel-Haifa University Economic Corporation Ltd., priority 2022, published 2025)
